Data as given in patent US5807889A, “Aminomethylindans, -benzofuranes and -benzothiophenes” (H. Lundbeck A/S, priority 1992, dated 1998).

Target: T1, 5-HT1A receptors (Rattus norvegicus, UniProt P19327)
T1 sequence (P19327 1-422): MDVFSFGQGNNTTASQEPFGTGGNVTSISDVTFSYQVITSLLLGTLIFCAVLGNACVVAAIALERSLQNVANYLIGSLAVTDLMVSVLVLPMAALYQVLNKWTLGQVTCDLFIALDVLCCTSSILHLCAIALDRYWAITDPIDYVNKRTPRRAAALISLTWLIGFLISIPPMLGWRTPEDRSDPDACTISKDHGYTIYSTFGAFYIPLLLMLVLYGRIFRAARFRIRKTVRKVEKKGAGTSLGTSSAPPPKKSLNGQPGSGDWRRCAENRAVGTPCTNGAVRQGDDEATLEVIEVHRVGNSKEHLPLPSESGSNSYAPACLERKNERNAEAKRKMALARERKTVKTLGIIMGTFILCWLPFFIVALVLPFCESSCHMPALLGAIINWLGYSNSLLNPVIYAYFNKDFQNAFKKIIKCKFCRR
Assay: Inhibition of 3H-8-OH-DPAT binding to serotonin 5-HT1A receptors in rat brain in vitro
Design: 5-HT1A receptors in membranes from rat brain minus cerebellum; from tissue; host or cells: brain minus cerebellum of male Wistar (Mol:Wist) rats, crude membranes; species or system rat (male Wistar)
Conditions: 3H 8-OH DPAT binding IC50, 1 nM 3H-8-OH-DPAT, rat brain minus cerebellum membranes, 37° C., 15 min
Method: Male Wistar (Mol:Wist) rats (125-250 g) are sacrificed and the brain is dissected and weighed. The brain tissue minus cerebellum is homogenized (Ultra Turrax, 20 sec) in 10 ml of ice cold 50 nM Tris buffer pH 8.0 (at 25° C.) containing 120 mM NaCl, 4 mM CaCl2 and 4 mM MgCl2. The homogenate is centrifuged at 20,000 g for 10 min at 4° C. The pellet is homogenized in 10 ml of buffer and incubated at 37° C. for 10 min. The homogenate is centrifuged as above and the pellet is homogenized in 100 vol (w/v) ice cold buffer containing 10 μM of pargyline.
Incubation tubes kept on ice in triplicate receive 100 μl of drug solution in water (or water for total binding) and 1000 μl of tissue suspension (final tissue content corresponds to 10 mg original tissue). […] After incubation for 15 min the samples are filtered under vacuum (0-50 mBar) through Whatman GF/F filters (25 mm). The tubes are rinsed with 5 ml ice cold 0.9% NaCl which is then poured on the filters. Thereafter, the filters are washed with 2×5 ml 0.9% NaCl. The filters are placed in counting vials and 4 ml of appropriate scintillation fluid (e.g. Picofluor™ 15) are added. After shaking for 1 h and storage 2 h in the dark the content of radioactivity is determined by liquid scintillation counting. Specific binding is obtained by subtracting the nonspecific binding in the presence of 10 μM of 5-HT.
For determination of the inhibition of binding five concentrations of drugs covering 3 decades are used.
The IC50 -value is determined as the concentration, at which the binding is 50% of the total binding in control samples minus the nonspecific binding in the presence of 10 μM of 5-HT.

IC50 [nM] | Compound
4.2 | CCCN(CCC)CC1CCc2ccc(NC=O)cc21 (single isomer, unassigned; (+)) [Compound 10b, (+)-1-(N,N-dipropylaminomethyl)-6-formylaminoindan]
22 | CCCN(CCC)CC1CCc2ccc(NC(=O)N(C)C)cc21 (single isomer, unassigned; (+)) [Compound 10d, (+)-6-(3,3-dimethyl-1-ureido)-1-(N,N-dipropylaminomethyl)indan]
63 | CCCN(CCC)CC1CCc2ccc(NC(=O)Nc3ccc(F)cc3)cc21 (single isomer, unassigned; (+)) [Compound 10f, (+)-6-[3-(4-fluorophenyl)-1-ureido]-1-(N,N-dipropylaminomethyl)indan]
220 | CN(C)CC1CCc2ccc(NC=O)cc21 (single isomer, unassigned; (+)) [Compound 10h, (+)-1-(N,N-dimethylaminomethyl)-6-formylaminoindan]
14 | CCCN(CCC)CC1CCc2cc(Cl)c(NC(C)=O)cc21 (single isomer, unassigned; (+)) [Compound 11c, (+)-6-Acetylamino-5-chloro-1-(N,N-dipropylaminomethyl)indan]
1 | CCCN(CCC)CC1CCc2ccc(NC=O)cc21 (single isomer, unassigned; (-)) [Compound 10a, (-)-1-(N,N-dipropylaminomethyl)-6-formylaminoindan]
8.1 | CCCN(CCC)CC1CCc2ccc(NC(=O)N(C)C)cc21 (single isomer, unassigned; (-)) [Compound 10c, (-)-6-(3,3-dimethyl-1-ureido)-1-(N, N-dipropylaminomethyl)indan]
160 | CCCN(CCC)CC1CCc2ccc(NC(=O)Nc3ccc(F)cc3)cc21 (single isomer, unassigned; (-)) [Compound 10e, (-)-6-[3-(4-fluorophenyl)-1-ureido]-1-(N,N-dipropylaminomethyl)indan]
48 | CN(C)CC1CCc2ccc(NC=O)cc21 (single isomer, unassigned; (-)) [Compound 10g, (-)-1-(N,N-dimethylaminomethyl)-6-formylaminoindan]
120 | CCCN(CCC)CC1CCc2cc(Br)c(NC(C)=O)cc21 (stereo not shown) [Compound 11d, 6-Acetylamino-5-bromo-1-(N,N-dipropylaminomethyl)indan]
25 | CNCC1CCc2ccc(NC(C)=O)cc21 (stereo not shown) [Compound 12a, 6-Acetylamino-1-(N-methylaminomethyl)indan]
27 | CC(=O)Nc1ccc2c(c1)C(CN(C)CCN1CCN(c3ccc(F)cc3)C1=O)CC2 (stereo not shown) [Compound 13e, 6-Acetylamino-1-[N-[2-[3-(4-fluorophenyl)-2-imidazolidinon-1-yl]ethyl]-N-methyl-aminomethyl]indan]
5.1 | CC(=O)Nc1ccc2c(c1)C(CN(C)CCCCN1CCN(C3CCCCC3)C1=O)CC2 (stereo not shown) [Compound 13f, 6-Acetylamino-1-[N-[4-(3-cyclohexyl-2-imidazolidinon-1-yl)-1-butyl]-N-methylaminomethyl]indan]
1 | CC(=O)Nc1ccc2c(c1)C(CN(C)CCCN1CCN(c3ccccc3)C1=O)CC2 (stereo not shown) [Compound 13g, 6-Acetylamino-1-[N-methyl-N-[3-(3-phenyl-2-imidazolidinon-1-yl)-1-propyl]aminomethyl]indan]
4.8 | CC(=O)Nc1ccc2c(c1)C(CN(C)CCCCN1CCN(c3ccc(F)cc3)C1=O)CC2 (stereo not shown) [Compound 13h, 6-Acetylamino-1-[N-[4-[3-(4-fluorophenyl)-2-imidazolidinon-1-yl]-1-butyl]-N-methylaminomethyl]indan]
2.2 | CC(=O)Nc1ccc2c(c1)C(CN(C)CCCN1CCN(C3CCCCC3)C1=O)CC2 (stereo not shown) [Compound 13i, 6-Acetylamino-1-[N-[3-(3-cyclohexyl-2-imidazolidinon-1-yl)-1-propyl]-N-methylaminomethyl]indan]
3.2 | CC(=O)Nc1ccc2c(c1)C(CN(C)CCCCCCN1CCN(C3CCCC3)C1=O)CC2 (stereo not shown) [Compound 13j, 6-Acetylamino-1-[N-[6-(3-cyclopentyl-2-imidazolidinon-1-yl)-1-hexyl]-N-methylaminomethyl]indan]
790 | CC(=O)Nc1ccc2c(c1)C(CN(C)CCCCN1CCNC1=O)CC2 (stereo not shown) [Compound 13k, 6-Acetylamino-1-[N-[4-(2-imidazolidinon-1-yl)-1-butyl]-N-methylaminomethyl]indan]

Continued, compound first:

Compound | IC50 [nM]
CC(=O)Nc1ccc2c(c1)C(CN1CCCCC1)CC2 (single isomer, unassigned; (+)) [Compound 8f, (+)-6-acetylamino-1-(1-piperidinomethyl)indan] | 15
CCCN(CCC)CC1CCc2ccc(NC(C)=O)cc21 (single isomer, unassigned; (-)) [Compound 8a, (-)-6-Acetylamino-1-(N,N-dipropylaminomethyl)indan] | 0.64
CC(=O)Nc1ccc2c(c1)C(CN1CCCCC1)CC2 (single isomer, unassigned; (-)) [Compound 8e, (-)-6-acetylamino-1-(1-piperidinomethyl)indan] | 6.7
O=CNc1ccc2c(c1)C(CN1CCCC1)CC2 (stereo not shown) [Compound 1d, 6-Formylamino-1-(1-pyrrolidinomethyl)indan] | 19
CCCN(CCC)CC1CCc2ccc(NC(C)=O)c(Cl)c21 (stereo not shown) [Compound 2f, 6-Acetylamino-7-chloro-1-(N,N-dipropylaminomethyl)indan] | 340
CCCN(CCC)CC1CCc2ccc(NS(C)(=O)=O)c(Cl)c21 (stereo not shown) [Compound 2h, 7-chloro-1-(N,N-dipropylaminomethyl)-6-(methylsulphonylamino)indan] | 2000
CC(=O)Nc1ccc2c(c1)C(CN1CCCCC1)CS2 (stereo not shown) [Compound 2i, 5-acetylamino-3-(1-piperidinomethyl)-2,3-dihydrobenzothiophene] | 6.3
CCCN(CCC)CC1CCc2ccc(NC(N)=O)cc21 (stereo not shown) [Compound 3a, 1-(N,N-dipropylaminomethyl)-6-ureido-indan] | 0.56
CCCN(CCC)CC1CCc2ccc(NC(=O)Nc3ccccc3)cc21 (stereo not shown) [Compound 4a, 1-(N,N-dipropylaminomethyl)-6-(3-phenyl-1-ureido)indan] | 80
CCCN(CCC)CC1CCc2ccc(NC(=O)NC)cc21 (stereo not shown) [Compound 4b, 1-(N,N-dipropylaminomethyl)-6-(3-methyl-1-ureido)indan] | 6.6
CCCCCCCCCNC(=O)Nc1ccc2c(c1)C(CN(CCC)CCC)CC2 (stereo not shown) [Compound 4d, 1-(N,N-dipropylaminomethyl)-6-(3-nonyl-1-ureido)indan] | 170
CCCN(CCC)CC1CCc2ccc(NC(=O)NC3CCCC3)cc21 (stereo not shown) [Compound 4e, 6-(3-cyclopentyl-1-ureido)-1-(N,N-dipropylaminomethyl)indan] | 170
CC(=O)Nc1ccc2c(c1)C(CN1CCCCC1)CC2 (stereo not shown) [Compound 5c, 6-acetylamino-1-(1-piperidinomethyl)indan] | 6.5
CCCN(CCC)CC1CCc2ccc(NCc3ccc(F)cc3)cc21 (stereo not shown) [Compound 6a, 1-(N,N-dipropylaminomethyl)-6-(4-fluorobenzylamino)indan] | 20

Same assay, conditions: read-out: 3H 8-OH DPAT binding IC50; 1 nM 3H-8-OH-DPAT, rat brain minus cerebellum membranes, 37° C., 15 min

IC50 [nM] | Compound
60 | 3-[N-(2-phenylethyl)-N-propylaminomethyl]-5-formylaminomethyl-2,3-dihydrobenzothiophene [Compound 5b]
0.64 | CCCN(CCC)CC1CCc2ccc(NC(C)=O)cc21 (single isomer, unassigned; (+)) [Compound 8b, (+)-6-Acetylamino-1-(N,N-dipropylaminomethyl)indan]
